According to ChEMBL document CHEMBL4406886, “Discovery of arylamide-5-anilinoquinazoline-8-nitro derivatives as VEGFR-2 kinase inhibitors: Synthesis, in vitro biological evaluation and molecular docking” (Bioorg Med Chem Lett, 2019):
Activity calls are given as the source filed them. The rule behind the calls is not given here.

Assays:
[1] = molecular target: Epidermal growth factor receptor (Homo sapiens) (UniProt P00533); assay: Inhibition of EGFR (unknown origin) at 1 uM using poly (Glu,Tyr) 4:1 as substrate measured after 1 hr in presence of ATP by spectrophotometric analysis relative to control
HUVEC = assay: Antiproliferative activity against human HUVEC cells expressing VEGFR2 assessed as cell growth inhibition measured after 48 hrs by MTT assay; format: functional, cell-based
HepG2 [2] = assay: Antiproliferative activity against human HepG2 cells expressing VEGFR2 assessed as cell growth inhibition measured after 48 hrs by MTT assay; format: functional, cell-based; settings: HepG2, 48 h
A549 = assay: Antiproliferative activity against human A549 cells expressing EGFR assessed as cell growth inhibition measured after 48 hrs by MTT assay; format: functional, cell-based; settings: A549, 48 h
MDA-MB-231 = assay: Antiproliferative activity against human MDA-MB-231 cells expressing EGFR assessed as cell growth inhibition measured after 48 hrs by MTT assay; format: functional, cell-based; settings: MDA-MB-231, 48 h
[3] = molecular target: T1, Vascular endothelial growth factor receptor 2 (Homo sapiens, UniProt P35968); settings: at 1 µM
Description: Inhibition of VEGFR2 (unknown origin) at 1 uM using poly (Glu,Tyr) 4:1 as substrate measured after 1 hr in presence of ATP by spectrophotometric analysis relative to control

Chorioallantoic membrane = assay: Antiangiogenic activity in chicken fertilized egg chorioallantoic membrane assessed as decrease in blood vessel growth at 10 nM measured after 48 hrs by microscopic analysis; format: functional, tissue-based; settings: Gallus gallus
L02 = assay: Cytotoxicity against human LO2 cells; format: cell-based
[4] = molecular target: T1, Vascular endothelial growth factor receptor 2; assay: Inhibition of VEGFR2 (unknown origin) using poly (Glu,Tyr) 4:1 as substrate measured after 1 hr in presence of ATP by spectrophotometric analysis
HepG2 [5] = assay: Cell cycle arrest in human HepG2 cells assessed as accumulation at G1 phase at 1 nM measured after 6 hrs by propidium iodide staining based flow cytometry analysis (reference value: 47.9 %); format: functional
HepG2 [6] = assay: Cell cycle arrest in human HepG2 cells assessed as accumulation at G2 phase at 1 nM measured after 6 hrs by propidium iodide staining based flow cytometry analysis (reference value: 52.1 %); format: functional
HepG2 [7] = assay: Cell cycle arrest in human HepG2 cells assessed as accumulation at S phase at 1 nM measured after 6 hrs by propidium iodide staining based flow cytometry analysis (reference value: 0 %); format: functional
HepG2 [8] = assay: Cell cycle arrest in human HepG2 cells assessed as accumulation at G1 phase at 10 nM measured after 6 hrs by propidium iodide staining based flow cytometry analysis (reference value: 47.9 %); format: functional
HepG2 [9] = assay: Cell cycle arrest in human HepG2 cells assessed as accumulation at G2 phase at 10 nM measured after 6 hrs by propidium iodide staining based flow cytometry analysis (reference value: 52.1 %); format: functional
HepG2 [10] = assay: Cell cycle arrest in human HepG2 cells assessed as accumulation at S phase at 10 nM measured after 6 hrs by propidium iodide staining based flow cytometry analysis (reference value: 0 %); format: functional
HepG2 [11] = assay: Induction of apoptosis in human HepG2 cells assessed as apoptotic cells at 1 nM measured after 6 to 24 hrs by dUTP-FITC/propidium iodide staining based flow cytometry analysis (reference value: 2.6 %); format: functional
HepG2 [12] = assay: Induction of apoptosis in human HepG2 cells assessed as apoptotic cells at 10 nM measured after 6 to 24 hrs by dUTP-FITC/propidium iodide staining based flow cytometry analysis (reference value: 2.6 %); format: functional
[13] = Solubility of compound; format: physicochemical
HepG2 [14] = assay: Cell cycle arrest in human HepG2 cells assessed as accumulation at G0/G1 phase measured after 6 hrs by propidium iodide staining based flow cytometry analysis; format: functional
HepG2 [15] = assay: Induction of apoptosis in human HepG2 cells assessed as necrotic cells at 1 nM measured after 24 hrs by dUTP-FITC/propidium iodide staining based flow cytometry analysis (reference value: 0.2 %)
HepG2 [16] = assay: Induction of apoptosis in human HepG2 cells assessed as necrotic cells at 10 nM measured after 24 hrs by dUTP-FITC/propidium iodide staining based flow cytometry analysis (reference value: 0.2 %)

Chain of Epidermal growth factor receptor (Homo sapiens) (P00533 whole entry): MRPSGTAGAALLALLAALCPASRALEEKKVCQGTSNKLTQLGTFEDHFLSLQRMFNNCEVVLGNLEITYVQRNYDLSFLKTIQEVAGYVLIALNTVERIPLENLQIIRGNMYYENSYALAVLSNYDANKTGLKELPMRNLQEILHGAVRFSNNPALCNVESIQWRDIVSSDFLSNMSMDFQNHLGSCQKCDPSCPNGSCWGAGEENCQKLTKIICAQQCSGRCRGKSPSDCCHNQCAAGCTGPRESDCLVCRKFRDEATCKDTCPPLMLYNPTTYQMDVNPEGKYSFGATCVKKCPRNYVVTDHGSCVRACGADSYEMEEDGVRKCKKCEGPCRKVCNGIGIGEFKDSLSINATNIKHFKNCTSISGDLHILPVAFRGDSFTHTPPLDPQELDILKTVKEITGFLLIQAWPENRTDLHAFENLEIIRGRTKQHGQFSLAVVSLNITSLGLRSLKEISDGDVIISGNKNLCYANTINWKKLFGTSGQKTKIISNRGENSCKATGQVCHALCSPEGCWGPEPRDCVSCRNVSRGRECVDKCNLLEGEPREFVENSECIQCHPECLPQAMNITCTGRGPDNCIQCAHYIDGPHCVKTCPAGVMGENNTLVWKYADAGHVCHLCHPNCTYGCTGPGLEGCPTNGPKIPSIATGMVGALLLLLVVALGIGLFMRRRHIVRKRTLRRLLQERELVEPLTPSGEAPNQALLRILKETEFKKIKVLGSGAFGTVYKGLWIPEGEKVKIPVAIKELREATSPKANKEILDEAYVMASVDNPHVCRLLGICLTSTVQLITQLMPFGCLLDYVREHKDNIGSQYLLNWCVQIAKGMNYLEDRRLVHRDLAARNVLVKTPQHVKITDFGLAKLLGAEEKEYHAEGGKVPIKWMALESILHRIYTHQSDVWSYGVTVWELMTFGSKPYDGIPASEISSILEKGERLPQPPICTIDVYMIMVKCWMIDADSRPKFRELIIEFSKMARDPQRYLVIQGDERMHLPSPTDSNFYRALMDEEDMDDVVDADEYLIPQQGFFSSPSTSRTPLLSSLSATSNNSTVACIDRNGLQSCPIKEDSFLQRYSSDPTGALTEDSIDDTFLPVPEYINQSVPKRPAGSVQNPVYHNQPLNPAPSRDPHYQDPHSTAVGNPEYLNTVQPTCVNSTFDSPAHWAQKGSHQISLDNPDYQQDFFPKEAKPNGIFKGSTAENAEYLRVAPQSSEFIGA
T1 sequence (P35968 whole entry): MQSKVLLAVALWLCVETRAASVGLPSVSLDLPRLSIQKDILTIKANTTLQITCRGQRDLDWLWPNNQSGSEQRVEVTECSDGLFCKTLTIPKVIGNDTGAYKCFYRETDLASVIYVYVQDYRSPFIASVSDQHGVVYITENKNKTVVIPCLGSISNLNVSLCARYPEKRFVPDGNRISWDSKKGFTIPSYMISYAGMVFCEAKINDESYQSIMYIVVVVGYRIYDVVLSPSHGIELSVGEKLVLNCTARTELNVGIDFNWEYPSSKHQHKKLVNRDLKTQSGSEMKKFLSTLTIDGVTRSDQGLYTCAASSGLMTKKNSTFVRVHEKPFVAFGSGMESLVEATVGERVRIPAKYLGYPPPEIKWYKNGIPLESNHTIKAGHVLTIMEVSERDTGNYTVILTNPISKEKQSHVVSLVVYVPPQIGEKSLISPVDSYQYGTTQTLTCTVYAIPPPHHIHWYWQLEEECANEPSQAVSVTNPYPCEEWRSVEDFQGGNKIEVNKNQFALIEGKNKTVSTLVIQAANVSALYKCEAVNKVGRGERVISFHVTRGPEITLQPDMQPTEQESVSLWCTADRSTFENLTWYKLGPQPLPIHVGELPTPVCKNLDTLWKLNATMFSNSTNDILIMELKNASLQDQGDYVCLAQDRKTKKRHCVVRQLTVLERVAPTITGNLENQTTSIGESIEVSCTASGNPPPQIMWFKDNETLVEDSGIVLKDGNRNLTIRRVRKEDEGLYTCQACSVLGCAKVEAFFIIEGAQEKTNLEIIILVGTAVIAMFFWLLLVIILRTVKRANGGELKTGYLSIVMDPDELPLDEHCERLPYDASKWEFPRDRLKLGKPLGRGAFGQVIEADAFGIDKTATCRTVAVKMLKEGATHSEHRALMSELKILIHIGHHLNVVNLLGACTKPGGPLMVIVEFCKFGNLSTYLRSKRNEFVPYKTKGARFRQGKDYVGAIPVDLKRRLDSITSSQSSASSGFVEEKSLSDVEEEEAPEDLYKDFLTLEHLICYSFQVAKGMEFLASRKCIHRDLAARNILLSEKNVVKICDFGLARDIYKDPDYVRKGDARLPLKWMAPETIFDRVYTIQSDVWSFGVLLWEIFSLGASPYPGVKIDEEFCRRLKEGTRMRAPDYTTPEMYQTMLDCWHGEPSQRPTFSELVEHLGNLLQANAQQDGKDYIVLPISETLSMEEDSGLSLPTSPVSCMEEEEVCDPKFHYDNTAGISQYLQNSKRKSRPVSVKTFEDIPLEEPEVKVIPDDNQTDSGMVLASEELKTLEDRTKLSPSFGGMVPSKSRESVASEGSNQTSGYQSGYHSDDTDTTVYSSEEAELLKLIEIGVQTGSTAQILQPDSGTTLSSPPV

Structure (SMILES) | inhibition [1] | IC50 (HepG2 [2]) | IC50 (A549) | IC50 (MDA-MB-231) | inhibition [3] | IC50 (HUVEC) | Activity (Chorioallantoic membrane) | further results
COc1ccccc1C(=O)Nc1ccc(Nc2ccc([N+](=O)[O-])c3ncnc(O)c23)cc1 | 43.6% | 40.7 µM | > 100 µM | 95.8 µM | 60.3% | 36.3 µM |  | 
Cc1cccc(C(=O)Nc2ccc(Nc3ccc([N+](=O)[O-])c4ncnc(O)c34)cc2)c1 | 37.8% | 40.8 µM | > 100 µM | > 100 µM | 58.2% | 47 µM |  | 
O=C(Nc1ccc(Nc2ccc([N+](=O)[O-])c3ncnc(O)c23)cc1)c1cccc(Cl)c1 | 27.7% | 42 µM | > 100 µM | > 100 µM | 63.2% | 36.7 µM | Active | 
Cc1ccc(C(=O)Nc2ccc(CN3CCN(C)CC3)c(C(F)(F)F)c2)cc1C#Cc1cnc2cccnn12 [PONATINIB] |  | 0.6 µM | 5.3 µM | 10.5 µM |  | 0.5 µM |  | IC50 (L02): 64.7 µM
O=C(Nc1ccc(Nc2ccc([N+](=O)[O-])c3ncnc(O)c23)cc1)Nc1cc(C(F)(F)F)ccc1Cl | 21.8% | 13.7 µM | > 100 µM | > 100 µM | 102% | 2.1 µM |  | IC50 (L02): 84.2 µM; IC50 [4]: 0.0154 µM
CNC(=O)c1cc(Oc2ccc(NC(=O)Nc3ccc(Cl)c(C(F)(F)F)c3)cc2)ccn1 [SORAFENIB] |  | 3.6 µM | 8.1 µM | 15.8 µM |  | 4.1 µM | Active | IC50 (L02): 72.9 µM
O=C(Nc1ccc(Nc2ccc([N+](=O)[O-])c3ncnc(O)c23)cc1)c1ccccc1F | 42.1% | 21 µM | 85.8 µM | 93.2 µM | 73.8% | 23.8 µM | Active | 
O=C(Nc1ccc(Nc2ccc([N+](=O)[O-])c3ncnc(O)c23)cc1)c1ccc(Cl)cc1 | 64.1% | 0.9 µM | 83 µM | 95.1 µM | 97.9% | 1.6 µM | Active | IC50 (L02): 73.5 µM; IC50 [4]: 0.363 µM
O=C(Nc1ccc(Nc2ccc([N+](=O)[O-])c3ncnc(O)c23)cc1)c1ccccc1Cl | 50.3% | 28 µM | 90.3 µM | 96.1 µM | 76.9% | 26.5 µM | Active | 
COc1cccc(C(=O)Nc2ccc(Nc3ccc([N+](=O)[O-])c4ncnc(O)c34)cc2)c1 | 36.7% | 64.2 µM | > 100 µM | > 100 µM | 47.6% | 57.8 µM |  | 
O=C(Nc1ccc(Nc2ccc([N+](=O)[O-])c3ncnc(O)c23)cc1)c1ccc(F)cc1 | 69.2% | 0.2 µM | 69 µM | 58.4 µM | 102% | 0.5 µM | Active | IC50 (L02): 63.2 µM; IC50 [4]: 0.0648 µM; Activity (HepG2 [5]): 52.6%; Activity (HepG2 [6]): 35.9%; Activity (HepG2 [7]): 11.5%; Activity (HepG2 [8]): 41.7%; Activity (HepG2 [9]): 24.3%; Activity (HepG2 [10]): 34%; Activity (HepG2 [11]): 34.3%; Activity (HepG2 [12]): 72.2%; solubility [13]: Soluble; Activity (HepG2 [14]): Dose-dependent effect; Activity (HepG2 [15]): 2.5%; Activity (HepG2 [16]): 2.1%
Cc1ccc(C(=O)Nc2ccc(Nc3ccc([N+](=O)[O-])c4ncnc(O)c34)cc2)cc1 | 57.2% | 18.5 µM | > 100 µM | 94.7 µM | 83.7% | 14.3 µM | Active | IC50 (L02): 93.2 µM
Cc1ccccc1C(=O)Nc1ccc(Nc2ccc([N+](=O)[O-])c3ncnc(O)c23)cc1 | 41.7% | 30.1 µM | 91.6 µM | > 100 µM | 65.8% | 37.2 µM |  | 

Second part, led by results:

inhibition [1] | IC50 (HepG2 [2]) | IC50 (A549) | IC50 (MDA-MB-231) | inhibition [3] | Structure (SMILES) | IC50 (HUVEC) | Activity (Chorioallantoic membrane) | further results
17.2% | 69.6 µM | > 100 µM | > 100 µM | 35.8% | O=C(Nc1cccc(Nc2ccc([N+](=O)[O-])c3ncnc(O)c23)c1)c1ccccc1F | 70.4 µM |  | 
26.3% | 93 µM | > 100 µM | > 100 µM | 29.2% | O=C(Nc1cccc(Nc2ccc([N+](=O)[O-])c3ncnc(O)c23)c1)c1cccc(Cl)c1 | 86.5 µM |  | 
11.3% | > 100 µM | > 100 µM | > 100 µM | 18% | Cc1cccc(C(=O)Nc2cccc(Nc3ccc([N+](=O)[O-])c4ncnc(O)c34)c2)c1 | 93.6 µM |  | 
9.4% | 76.3 µM | > 100 µM | > 100 µM | 38.5% | O=C(Nc1cccc(Nc2ccc([N+](=O)[O-])c3ncnc(O)c23)c1)c1ccc(Cl)cc1 | 73.8 µM |  | 
27.3% | 72.1 µM | > 100 µM | > 100 µM | 38.1% | O=C(Nc1cccc(Nc2ccc([N+](=O)[O-])c3ncnc(O)c23)c1)c1cccc(F)c1 | 74.2 µM |  | 
12.4% | 90.3 µM | > 100 µM | > 100 µM | 26.9% | COc1ccccc1C(=O)Nc1cccc(Nc2ccc([N+](=O)[O-])c3ncnc(O)c23)c1 | 82 µM |  | 
53.8% | 7.41 µM | 87.4 µM | 86.3 µM | 92.4% | O=C(Nc1ccc(Nc2ccc([N+](=O)[O-])c3ncnc(O)c23)cc1)c1ccccc1 | 5.7 µM | Active | IC50 (L02): 65.3 µM; IC50 [4]: 0.735 µM
6.4% | 90.3 µM | > 100 µM | > 100 µM | 21.6% | Cc1ccccc1C(=O)Nc1cccc(Nc2ccc([N+](=O)[O-])c3ncnc(O)c23)c1 | 89.6 µM |  | 
12.8% | 74 µM | > 100 µM | > 100 µM | 32.7% | Cc1ccc(C(=O)Nc2cccc(Nc3ccc([N+](=O)[O-])c4ncnc(O)c34)c2)cc1 | 80.5 µM |  | 
18.5% | 68.5 µM | 95 µM | > 100 µM | 41.9% | O=C(Nc1cccc(Nc2ccc([N+](=O)[O-])c3ncnc(O)c23)c1)c1ccc(F)cc1 | 63.2 µM |  | 
15.4% | 75.2 µM | > 100 µM | > 100 µM | 37.8% | O=C(Nc1cccc(Nc2ccc([N+](=O)[O-])c3ncnc(O)c23)c1)c1ccccc1 | 79.1 µM |  | 
22.5% | 71.9 µM | > 100 µM | > 100 µM | 30.1% | O=C(Nc1cccc(Nc2ccc([N+](=O)[O-])c3ncnc(O)c23)c1)c1ccccc1Cl | 74.6 µM |  | 
36.9% | 36.1 µM | 83.3 µM | > 100 µM | 69.4% | O=C(Nc1ccc(Nc2ccc([N+](=O)[O-])c3ncnc(O)c23)cc1)c1cccc(F)c1 | 38.9 µM | Active | 
